Literature values, collected in patent US6338859B1, “Polymeric micelle compositions” (Labopharm Inc., priority 2000, dated 2002).
Where “and” joins values, the source holds several entries; their conditions need not be identical. Equal values may be shown once. Read-outs that look alike come from different tables or passages of the source. Marks after values point to notes of the source that are not given here. Values belong to the molecule of their own block, whether it stands above or below them.

Experiments:
[1] = not given; remark: listed apart in the source
[2] = polymer PEO-PE, physical entrapment
[3] = polymer PEO-PBLA, physical entrapment
[4] = polymer PEO-P(Asp), chemical bonding

Molecule: ^111In-DTPA-SA
Micelle size with drug [2]: 20 nm

Molecule: C[C@@H]1[C@H](O)[C@@H](C)/C=C/C=C/C=C/C=C/C=C/C=C/C=C/[C@H](O[C@@H]2O[C@H](C)[C@@H](O)[C@H](N)[C@@H]2O)C[C@@H]2O[C@](O)(C[C@@H](O)C[C@@H](O)[C@H](O)CC[C@@H](O)C[C@@H](O)CC(=O)O[C@H]1C)C[C@H](O)[C@H]2C(=O)O [Amphotericin B]
Micelle size with drug [3]: 26 nm
hemolytic activity ([1]; after incorporation into PEO-PBLA micelles): decrease

Molecule: Gd-DTPA-PE
Micelle size with drug [2]: 20 nm

Molecule: N.N.[Cl][Pt][Cl] [Cisplatin]
Micelle size with drug [4]: 16 nm

Molecule: COc1cccc2c1C(=O)c1c(O)c3c(c(O)c1C2=O)C[C@@](O)(C(=O)CO)C[C@@H]3O[C@H]1C[C@H](N)[C@H](O)[C@H](C)O1 [DOX, doxorubicin]
Micelle size with drug [4]: 14-131 nm and 17-42 nm
Micelle size with drug (polymer PEO-P(Asp), chemical bonding, listed as Doxirubicin (DOX)): 50 nm
Micelle size with drug [3]: 30 nm and 37 nm
retention of drug in micelles ([1]; in PEO-PBLA after freeze drying and reconstitution in water, iodide quenching): retained

B1: Soybean trypsin inhibitor: Soybean trypsin inhibitor physically entrapped in PEO-PE micelles (protein, UniProt P01070 25-205, looked up)
Trypsin inhibitor A: DFVLDNEGNPLENGGTYYILSDITAFGGIRAAPTGNERCPLTVVQSRNELDKGIGTIISSPYRIRFIAEGHPLSLKFDSFAVIMLCVGIPTEWSVVEDLPEGPAVKIGENKDAMDGWFRLERVSDDEFNNYKLVFCPQQAEDDKCGDIGISIDHDDGTRRLVVSKNKPLVVQFQKLDKESL
modifications: entrapped in PEO-PE micelles
Micelle size with drug [2]: 15 nm

Further lines, results first:

Micelle size with drug (polymer PEO-(C16, BLA), physical entrapment, after the sonication of PEO(C16, BLA) aggregates): 71* nm
Molecule: KRN-5500

Micelle size with drug [3]: 25-29 nm
Micelle size with drug (polymer PEO-PCL, physical entrapment): 145-165 nm and 114-156 nm
Molecule: COc1ccc2c(c1)c(CC(=O)O)c(C)n2C(=O)c1ccc(Cl)cc1 [Indomethacin]

Micelle size with drug [2]: 15 nm
Molecule: Cc1cc(N)c2ccccc2[n+]1CCCCCCCCCC[n+]1c(C)cc(N)c2ccccc21 [Dequalinium]

Micelle size with drug (polymer PEO-PPO-PEO, physical entrapment): 15 nm
Molecule: O=C(CCCN1CCC(O)(c2ccc(Cl)cc2)CC1)c1ccc(F)cc1 [Haloperidol]
